Values of other authors in US20210069098A1, “RIBAVIRIN […] COMPOSITION FOR TREATING VIRAL DISEASES” (MT RESEARCH, LLC, priority 2009, published 2021).
Read-outs that look alike come from different tables or passages of the source.

Key:
[1] = PLV
[2] = nebulized neat perflubron

Compound: CC(=O)N[C@@H](CS)C(=O)O [N-acetylcysteine (NAC), N-acetylcysteine]
- survival (Influenza; in vivo): improve survival

Compound: superoxide dismutase [superoxide dismutase (SOD)]
- survival (Influenza; […]): improve survival

Compound: FC(F)(F)C(F)(F)C(F)(F)C(F)(F)C(F)(F)C(F)(F)C(F)(F)C(F)(F)Br [perflubron]
- reduction in ventilator days or mortality ([1]; low dose 10 mL/kg or high dose 20 mL/kg): failed to demonstrate a reduction in ventilator days or mortality
- complications ([1]; low dose or high dose, hypotension, hypoxemia and pneumothorax): more complications
- gas exchange [2]: efficacy for gas exchange
